Structures are written as SMILES. In brackets after ≈: the same amount, converted by molar mass. Some results are limits rather than exact numbers.

One test deals with BT-20. Description: Anticancer activity against human BT-20 cells assessed as cell growth inhibition by MTT assay. Format: functional, cell-based. In general terms: Tetrazolium assays rely on reduction of a dye to a coloured formazan, in cell work by metabolically active cells.
Test [1] concerns HCC1806. Description: Anticancer activity against human HCC1806 cells assessed as cell growth inhibition incubated for 4 to 10 days by MTT assay. The format is functional, cell-based.
In test [2] the test system is Hs-578T. Description: Anticancer activity against human Hs-578T cells assessed as cell growth inhibition incubated for 4 to 10 days by MTT assay. The format is functional, cell-based.
The test system of test [3] is MDA-MB-231. Description: Anticancer activity against human MDA-MB-231 cells assessed as cell growth inhibition incubated for 4 to 10 days by MTT assay. Format: functional, cell-based.
Test [4] deals with HCC38. Nature of the test: Anticancer activity against human HCC38 cells assessed as cell growth inhibition incubated for 4 to 10 days by MTT assay. The format is functional, cell-based.
In test [5] the test system is BT-549. Nature of the test: Anticancer activity against human BT-549 cells assessed as cell growth inhibition incubated for 4 to 10 days by MTT assay. Format: functional, cell-based.
In the next test the test system is HCC1187. Description: Anticancer activity against human HCC1187 cells assessed as cell growth inhibition. The format is functional, cell-based.
Test [6] concerns MDA-MB-468. Nature of the test: Anticancer activity against human MDA-MB-468 cells assessed as cell growth inhibition. The format is functional, cell-based.
In test [7] the test system is MDA-MB-231. Description: Anticancer activity against human MDA-MB-231 cells assessed as cell growth inhibition. Format: functional, cell-based.
Another test relates to HCC1143. Description: Anticancer activity against human HCC1143 cells assessed as cell growth inhibition. Format: functional, cell-based.
In the next test the test system is HCC70. Description: Anticancer activity against human HCC70 cells assessed as cell growth inhibition. The format is functional, cell-based.
For a further test, the target named is Thioredoxin (Homo sapiens, UniProt P10599). Description: Inhibition of human TXN incubated for 30 mins by fluorescence based plate reader analysis.
For test [8], the system named is HCC1806. Nature of the test: Anticancer activity against human HCC1806 cells assessed as cell growth inhibition incubated for 72 hrs by CellTiter-Blue assay. The format is functional, cell-based. Particulars: HCC1806, 72 h. For orientation: Resazurin is reduced to fluorescent resorufin, in cell work by metabolically active cells.
For test [9], the system named is MDA-MB-231. Nature of the test: Anticancer activity against human MDA-MB-231 cells assessed as cell growth inhibition incubated for 72 hrs by CellTiter-Blue assay. Format: functional, cell-based. Particulars: MDA-MB-231, 72 h.
Test [10] relates to MDA-MB-231. Nature of the test: cells. Particulars: Homo sapiens, MDA-MB-231, 24 h.
The subject of test [11] is Hs-578T. Nature of the test: Anticancer activity against human Hs-578T cells assessed as cell growth inhibition incubated for 24 hrs by ALDEFLUOR assay. The format is functional, cell-based.
The test system of test [12] is HCC1806. Nature of the test: Anticancer activity against human HCC1806 cells assessed as cell growth inhibition. The format is functional.
For test [13], the system named is MDA-MB-468. Description: Anticancer activity against human MDA-MB-468 cells assessed as cell growth inhibition by MTT assay. Format: functional, cell-based.
Test [14] relates to MDA-MB-231. Description: cells. Conditions: Homo sapiens.
The subject of test [15] is HCC38. Description: Anticancer activity against human HCC38 cells assessed as cell growth inhibition by MTT assay. The format is functional, cell-based.
Test [16] has as its system MDA-MB-231. Description: Anticancer activity against human MDA-MB-231 cells assessed as cell growth inhibition incubated for 3 to 5 days by MTT assay. Format: functional, cell-based.
Test [17] relates to MDA-MB-231. Description: cells. Conditions: Homo sapiens, MDA-MB-231, 48 h.
The subject of test [18] is MDA-MB-468. Nature of the test: Anticancer activity against human MDA-MB-468 cells assessed as cell growth inhibition incubated for 48 hrs by MTT assay. Conditions: MDA-MB-468, 48 h. Format: functional, cell-based.
The subject of test [19] is HCC38. Nature of the test: Anticancer activity against human HCC38 cells assessed as cell growth inhibition. The format is functional, cell-based.
The test system of another test is MDA-MB-453. Description: Anticancer activity against human MDA-MB-453 cells assessed as cell growth inhibition. Format: functional, cell-based.
In another test the test system is MCF7. Nature of the test: Anticancer activity against human MCF7 cells assessed as cell growth inhibition. Format: functional, cell-based.
A further test has as its system HCC1937. Nature of the test: Anticancer activity against human HCC1937 cells assessed as cell growth inhibition. The format is functional, cell-based.
Test [20] has as its system Hs-578T. Description: Anticancer activity against human Hs-578T cells assessed as cell growth inhibition. The format is functional, cell-based.
A further test deals with SUM149PT. Description: Anticancer activity against human SUM149 cells assessed as cell growth inhibition. Format: functional, cell-based.
Test [21] concerns BT-549. Nature of the test: Anticancer activity against human BT-549 cells assessed as cell growth inhibition incubated for 24 hrs by CCK8 assay. Format: functional, cell-based. Particulars: BT-549, 24 h.
A further test concerns MDA-MB-436. Nature of the test: Anticancer activity against human MDA-MB-436 cells assessed as cell growth inhibition incubated for 24 hrs by CCK8 assay. Conditions: MDA-MB-436, 24 h. Format: functional, cell-based.
The subject of test [22] is MDA-MB-231. Nature of the test: Anticancer activity against human MDA-MB-231 cells assessed as cell growth inhibition incubated for 24 hrs by CCK8 assay. Format: functional, cell-based. Conditions: MDA-MB-231, 24 h.
Test [23] addresses N-lysine methyltransferase SMYD2 (Homo sapiens, UniProt Q9NRG4). Description: Inhibition of human SMYD2 by western blot assay.
In a further test the test system is SUM185PE. Description: Anticancer activity against human SUM185PE cells assessed as cell growth inhibition incubated for 6 days by CellTiter96 analysis. The format is functional, cell-based. Conditions: 144 h.
Test [24] deals with T1, Aurora kinase B (Homo sapiens, UniProt Q96GD4). Nature of the test: Inhibition of human Aurora B kinase expressed in SUM149 cells. Format: cell-based, SUM149PT.
For test [25], the target named is T1, Aurora kinase B. Nature of the test: Inhibition of human Aurora B kinase expressed in MDA-MB-231 cells. The format is cell-based.
The target in test [26] is T1, Aurora kinase B. Description: Inhibition of human Aurora B kinase expressed in MDA-MB-468 cells. The format is cell-based.
For test [27], the target named is T2, Insulin-like growth factor 1 receptor (Homo sapiens, UniProt P08069). Nature of the test: Inhibition of human IGF1R expressed in MDA-MB-468 cells. Format: cell-based.
The target of a further test is Aurora kinase A (Homo sapiens, UniProt O14965). Description: Inhibition of human Aurora A kinase expressed in MDA-MB-468 cells. The format is cell-based.
Test [28] has as its target T2, Insulin-like growth factor 1 receptor. Nature of the test: Inhibition of human IGF1R expressed in SUM149 cells. Format: cell-based, SUM149PT.

T1 sequence (Q96GD4 whole entry): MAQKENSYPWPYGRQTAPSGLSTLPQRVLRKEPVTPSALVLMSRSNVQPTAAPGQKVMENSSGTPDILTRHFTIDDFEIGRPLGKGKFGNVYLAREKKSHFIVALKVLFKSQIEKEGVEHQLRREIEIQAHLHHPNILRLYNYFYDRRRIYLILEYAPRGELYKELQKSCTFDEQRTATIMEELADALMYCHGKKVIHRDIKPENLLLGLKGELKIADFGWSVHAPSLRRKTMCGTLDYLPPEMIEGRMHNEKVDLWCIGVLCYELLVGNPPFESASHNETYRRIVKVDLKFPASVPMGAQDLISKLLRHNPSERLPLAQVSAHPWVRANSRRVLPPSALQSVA
T2 sequence (P08069 31-736 limits assumed): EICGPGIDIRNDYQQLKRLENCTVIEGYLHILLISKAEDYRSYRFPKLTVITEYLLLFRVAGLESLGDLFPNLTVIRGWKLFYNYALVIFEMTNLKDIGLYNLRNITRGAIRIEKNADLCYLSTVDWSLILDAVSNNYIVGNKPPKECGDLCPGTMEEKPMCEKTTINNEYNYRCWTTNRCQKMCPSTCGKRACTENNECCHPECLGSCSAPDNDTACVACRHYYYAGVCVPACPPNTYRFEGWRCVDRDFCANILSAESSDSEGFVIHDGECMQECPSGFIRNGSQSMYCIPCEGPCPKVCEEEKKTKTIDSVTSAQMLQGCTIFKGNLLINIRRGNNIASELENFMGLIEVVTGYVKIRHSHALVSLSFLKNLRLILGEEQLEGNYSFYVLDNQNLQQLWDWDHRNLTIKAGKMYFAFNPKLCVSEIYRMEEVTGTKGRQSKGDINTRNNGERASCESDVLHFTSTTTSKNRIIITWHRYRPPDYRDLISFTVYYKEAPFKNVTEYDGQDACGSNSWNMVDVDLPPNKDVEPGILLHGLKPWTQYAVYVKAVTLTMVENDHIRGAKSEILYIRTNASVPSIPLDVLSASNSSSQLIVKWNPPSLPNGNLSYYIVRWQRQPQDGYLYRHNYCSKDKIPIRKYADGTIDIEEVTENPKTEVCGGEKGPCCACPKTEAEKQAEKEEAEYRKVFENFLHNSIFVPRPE
T2 sequence (P08069 741-1367 limits assumed): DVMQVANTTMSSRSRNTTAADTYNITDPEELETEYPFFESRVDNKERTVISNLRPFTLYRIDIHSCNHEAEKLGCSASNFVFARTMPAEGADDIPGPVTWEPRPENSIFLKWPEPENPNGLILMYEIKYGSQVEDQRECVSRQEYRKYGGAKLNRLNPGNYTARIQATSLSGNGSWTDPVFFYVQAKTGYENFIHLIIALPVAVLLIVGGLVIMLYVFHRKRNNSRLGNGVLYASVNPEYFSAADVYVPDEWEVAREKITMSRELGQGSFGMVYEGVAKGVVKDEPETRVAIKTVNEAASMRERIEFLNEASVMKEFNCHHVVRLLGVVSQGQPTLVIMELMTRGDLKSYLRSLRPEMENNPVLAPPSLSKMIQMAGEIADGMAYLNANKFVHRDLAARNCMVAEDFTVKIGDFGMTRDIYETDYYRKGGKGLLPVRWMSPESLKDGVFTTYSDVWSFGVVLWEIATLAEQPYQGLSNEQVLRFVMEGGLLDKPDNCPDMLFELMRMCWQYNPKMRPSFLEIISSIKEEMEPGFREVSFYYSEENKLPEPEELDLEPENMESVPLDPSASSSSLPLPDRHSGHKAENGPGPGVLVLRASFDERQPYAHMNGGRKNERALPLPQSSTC
Sequence of Thioredoxin (P10599 whole entry): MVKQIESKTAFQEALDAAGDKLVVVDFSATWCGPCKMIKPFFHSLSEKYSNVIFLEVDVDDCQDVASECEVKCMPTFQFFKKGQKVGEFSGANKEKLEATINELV
Sequence of N-lysine methyltransferase SMYD2 (Q9NRG4 whole entry): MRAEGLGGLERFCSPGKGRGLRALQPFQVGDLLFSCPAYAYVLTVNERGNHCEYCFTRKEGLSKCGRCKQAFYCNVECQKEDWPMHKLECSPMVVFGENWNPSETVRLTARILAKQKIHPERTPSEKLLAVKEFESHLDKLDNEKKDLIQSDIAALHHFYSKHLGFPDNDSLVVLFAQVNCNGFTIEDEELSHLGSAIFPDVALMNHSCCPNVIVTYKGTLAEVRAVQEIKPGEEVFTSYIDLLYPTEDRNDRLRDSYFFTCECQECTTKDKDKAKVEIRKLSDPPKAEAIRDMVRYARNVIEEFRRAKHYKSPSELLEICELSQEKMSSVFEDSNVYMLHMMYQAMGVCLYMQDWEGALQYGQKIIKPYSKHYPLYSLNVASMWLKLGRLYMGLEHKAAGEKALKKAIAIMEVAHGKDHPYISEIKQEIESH
Sequence of Aurora kinase A (O14965 whole entry): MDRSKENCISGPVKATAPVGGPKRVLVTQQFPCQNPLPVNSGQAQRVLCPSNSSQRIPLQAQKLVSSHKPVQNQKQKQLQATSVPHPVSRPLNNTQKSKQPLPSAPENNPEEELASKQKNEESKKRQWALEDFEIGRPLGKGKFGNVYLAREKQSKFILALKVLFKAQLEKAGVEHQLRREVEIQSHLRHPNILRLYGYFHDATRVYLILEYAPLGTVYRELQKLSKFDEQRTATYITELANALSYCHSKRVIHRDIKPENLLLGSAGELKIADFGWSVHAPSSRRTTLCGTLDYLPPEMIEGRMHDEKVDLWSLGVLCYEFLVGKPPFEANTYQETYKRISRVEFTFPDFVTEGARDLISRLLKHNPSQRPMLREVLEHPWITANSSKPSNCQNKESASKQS

As a reminder, the IC50 is the concentration needed to halve the response being measured. Turning to `CN(c1ccccc1CNc1nc(Nc2ccc3c(c2)CC(=O)N3)ncc1C(F)(F)F)S(C)(=O)=O`, the IC50 in the test with BT-20 came to 6200 nM.

`Cc1sc2c(c1C)C(c1ccc(Cl)cc1)=N[C@@H](CC(=O)NCCCCCCCCCCNC(=O)C[C@@H]1N=C(c3ccc(Cl)cc3)c3c(sc(C)c3C)-n3c(C)nnc31)c1nnc(C)n1-2`: the IC50 in the test with HCC1806 [1] was 19 nM; in the test with Hs-578T [2], 4.1 nM; with MDA-MB-231 [3], 10.3 nM; in the test on HCC38 [4], 15 nM; with BT-549 [5], 6.8 nM.

On to `N#CCNC(=O)c1ccc(-c2ccnc(Nc3ccc(N4CCOCC4)cc3)n2)cc1` [MOMELOTINIB], for which the IC50 in the test with HCC1187 was 1000 nM; in the test on MDA-MB-468 [6], 1000 nM; in the test with MDA-MB-231 [7], 1000 nM; with HCC1143, 5000 nM; in the test on HCC70 (Homo sapiens, HCC70) it was 10000 nM.

In turn, `Fc1ccc(-c2ccc(Nc3nc(Cl)nc(Cl)n3)cc2)cc1` registered an IC50 against Thioredoxin of 10000 nM.

Regarding `O=C(Cc1cccc(OC(F)(F)F)c1)Nc1ccc(CCCCc2nnc(NC(=O)Cc3ccccn3)s2)nn1`, the IC50 in the test on HCC1806 [8] was 100 nM; with MDA-MB-231 [9], 50 nM.

With `Nc1ccccc1NC(=O)c1ccc(CNC(=O)OCc2cccnc2)cc1` [ENTINOSTAT], the IC50 with MDA-MB-231 [10] and with Hs-578T [11] was 1000 nM throughout.

As for `Nc1ccc(-c2ccc3ncc4ccc(=O)n(-c5cccc(C(F)(F)F)c5)c4c3c2)cn1`, the GR50 with HCC1806 [12] and in the test with HCC70 was 0.01 µM each time.

Regarding `O=C(NC[C@H](O)CN1CCc2ccccc2C1)c1cc(NC2COC2)ncn1`, the results for the IC50 in the test on MDA-MB-468 [13], in the test on MDA-MB-231 [14] and with HCC38 [15] were 1000 nM, 60000 nM and 5000 nM, respectively.

As to `CCOC(=O)c1cnn(-c2ccc(NC(=O)C(Cl)=C(Cl)Cl)cc2)c1C(F)(F)F`, the IC50 in the test with MDA-MB-231 [16] amounted to 1000 nM.

For `Cc1c(-c2ccc(O)cc2)n(Cc2ccc(OCCN3CCCCCC3)cc2)c2ccc(O)cc12` [BAZEDOXIFENE], the IC50 was found to be 7450 nM in the test on MDA-MB-231 [17] and 3140 nM in the test on MDA-MB-468 [18].

One may read the EC50 as the concentration needed to bring the measured effect to its halfway point. Consider `CCN(CC)c1ccc(CNc2ccc(Cl)cc2)cc1`, for which the EC50 with HCC38 [19] came out at 1200 nM; in the test with MDA-MB-468 [6] it was 2500 nM; with MDA-MB-453, 2510 nM; with MCF7, 770 nM; with HCC1937 it was 440 nM.

For `Cc1nc(Nc2ncc(C(=O)Nc3cc(NC(=O)c4cccc(C(F)(F)F)c4)ccc3C)s2)cc(N2CCN(CCO)CC2)n1`, the IC50 was determined as 9.1 nM in the test with Hs-578T [20], 6.1 nM with MDA-MB-231 [7], 230 nM in the test with SUM149PT and 120 nM in the test with HCC1937.

`O=C1OC(=O)C2C3CCC(O3)C12` (centres undefined): the IC50 with BT-549 [21] is 12.8 µg/mL (≈ 76.3 µM); in the test with MDA-MB-436, 17.7 µg/mL (≈ 105 µM); in the test on MDA-MB-231 [22], 21.8 µg/mL (≈ 130 µM).

For the compound `O=C1COc2c(CCNCCN(C(=O)CCNCCc3ccc(Cl)c(Cl)c3)C3CCCCC3)ccc(O)c2N1`, the IC50 in [23] turned out to be 20000 nM.

With `CCN(CC)CCCCNc1ncc2cc(-c3cc(OC)cc(OC)c3)c(NC(=O)NC(C)(C)C)nc2n1` [PD-173074], in the test with SUM185PE, the IC50 worked out at 20 nM.

`Cc1ccsc1C(=O)Nc1cc(CN2CCN(C(=O)CO)CC2)ccc1/C=C/c1n[nH]c2ccccc12` [KW-2450]: the IC50 against Aurora kinase B [24] was 272 nM; on Aurora kinase B [25], 66 nM; on Aurora kinase B [26], 478 nM; in [27], below 2 nM; against Aurora kinase A it was 215 nM; in test [28], below 2 nM.
